Experimental data published in patent US20170003277A1 (priority 2015, published 2017).

Columns and labels:
[1] = system: mouse splenocytes; test: Microarray gene expression of splenocytes from Copaxone- or Polimunol-immunized mice activated ex vivo with Copaxone or Polimunol; type: cell-based
Experimental: All experimental procedures conformed to accepted ethical standards for use of animals in research and were in accordance with Committee for the Care and Use of Experimental Animals guidelines and approved by the Teva Institutional Animal Care and Use Committee. For these experiments, 8- to 12-week-old female (Balb/c X SJL) F1 mice (Janvier, France) were purchased. Mice were kept at 21±3° C.; the relative humidity was 30-70%, the light/dark cycle was 12/12 h. Animals were maintained on a standard rodent pellet diet and sterile filtered tap water available ad libitum.
To stimulate induction of GA-reactive T cells, twelve mice were injected with 100 μL of a 2.5 mg/mL solution of GA reference standard (GA-RS) in phosphate-buffered saline (250 μg GARS per mouse). GA-RS (Teva) is a selected GA drug substance batch defined as the standard batch and used as a reference in quality control release tests of all Copaxone® batches. Another group of twelve mice were injected with 100 μL of a 2.5 mg/mL solution of Polimunol in phosphate-buffered saline (250 μg Polimunol per mouse). Polimunol is a proposed generic manufactured a company other than Teva. […] A single cell suspension was prepared. After red blood cells lysis, splenocytes from the same immunization group were pulled and resuspended to a final concentration of 10×10^6 cells/mL in defined cell culture media (DCCM1) (Biological Industries, Beit Haemek, Israel) (96.7% v/v) enriched with L-glutamine 2 mM (1% v/v), MEM Non-Essential Amino Acids 2 mM (1% v/v), sodium pyruvate 1 mM (1% v/v), antibiotic/antimycotic solution (0.2% v/v) and 2-mercaptoethanol 50 mM (0.1% v/v).
Splenocytes were treated with activator samples diluted in medium (125 μL per well of 80 μg/mL solutions, final concentration in the well: 40 μg/mL) of: i) 3 different batches of GA drug product manufactured by Teva ii) one batch of proposed generic (Polimunol). Polimunol is a product marketed as generic GA and manufactured by a company other than Teva (i.e. Synthon). […] Splenocytes (125 μL 10×10^6 SPL cell/mL suspension) were added to the activator solutions. Each activator sample was loaded in two different plates. One for the cells from mice immunized with GA and one for cells from mice immunized with proposed generic. Plates were incubated for 24 h at 37° C. Cells were collected from the wells and were centrifuged at 300 g for 5 minutes. Supernatants were aspirated and cell pellets were resuspended in RLT buffer (from RNeasy mini kit of Qiagen, Cat #74106) for cell lysis. The cell lysates were centrifuged and supernatants were collected and frozen at −70° C. Samples were sent for further processing.
For additional detail on experimental methods used in mouse studies, please refer to publications [Bakshi et al; Towfic et al]. Note that in this study, mice were immunized with either Copaxone® or Polimunol, and subsequently splenocytes were isolated and treated ex vivo with Copaxone® or Polimunol. RNA was extracted and expression profiled across the entire genome using the Affymetrix Mouse Genome 430 2 chip. Three lots of Copaxone®, and one lot of Polimunol were comparatively tested in six replicates each.
Outlier samples were identified using the R package ArrayQCMetrics and excluded from further data processing steps. A sample was considered an outlier if it failed more than half of the included tests either before or after RMA normalization. Data were RMA normalized using the Affy R package.
Correction for batch variation was performed using ComBat as described above (THP-1 methods). Date of microarray experiment was used as batch, and the combination of treatment and immunization was used as covariate.
Differentially expressed probesets were identified across conditions using linear models for microarray data (LIMMA; Smyth, G. K. (2004)), a standard R Bioconductor package. Linear models and empirical Bayes methods for assessing differential expression in microarray experiments. […]

[2] = system: THP-1 human monocyte cell line; test: Luminex secreted cytokines and chemokines from THP-1 cells, 24 hours, Polimunol or Probioglat vs Copaxone (Example 13); type: cell-based; details: mannitol control
Experimental: To evaluate effects of Copaxone at the protein level, and assess the extent to which differences observed at the mRNA level (using micaroarry and qRT-PCR) were further consistent with effects observed at the level of the translated proteins, levels of 42 secreted cytokines and chemokines were measured using Luminex technology, analyzing the supernatant of THP-1 cells (human monocyte cell line) stimulated for 24 hours with Copaxone, FOGA, or mannitol control.
Measurements were also undertaken at the protein level, in order to assess the biological relevance of the observed gene expression differences. Levels of a panel of secreted cytokines and chemokines were measured via Luminex from THP-1 cells stimulated with branded GA, Polimunol, or Probioglat.
Cells from the THP-1 human monocyte cell line were incubated with branded GA, FOGA (Polimunol or Probioglat), or vehicle control (mannitol) for 24 hours. This time point was chosen in order to reflect translation of mRNA expression patterns observed in the same study design at 6 hours post stimulation. Supernatants were collected and assayed for the concentration of selected proteins using a Luminex assay. A total of 5 biological replicates per condition were utilized.
Data (concentrations in pg/mL) were compared using a two-sided t-test with equal variance, and corrected for multiple hypothesis testing using Benjamini-Hochberg correction. […]

## glatiramer acetate [Copaxone®]
[1]; Copaxone immunization, adj p<3.4e-23
  Foxp3 expression: upregulated
[1]; Copaxone immunization, two probesets, adj p<4.2e-33 and 9.0e-31
  Gpr83 expression: upregulated
[1]; Copaxone-immunized mice
  Probesets downregulated by Copaxone relative to medium: 8,305
  Probesets downregulated by Copaxone relative to medium, |FC|≧2: 485
  Probesets significantly modulated by Copaxone relative to medium: 16,647
  Probesets upregulated by Copaxone relative to medium: 8,342
  Probesets upregulated by Copaxone relative to medium, |FC|≧2: 411
[2]
  CCL2 secreted level relative to control: not modulated
